US6545053B1, “Tricyclic compounds and drug compositions containing same” (Asahi Kasei Kogyo Kabushiki Kaisha, priority 1996, dated 2003)
Structures can show the parent of a compound that is named as a salt. Where two headings read alike, the source gives them in different places.

Tests used:
[1] = biological target: T1, human β3 (Homo sapiens, UniProt P13945); experiment: Human β3-agonist activity (cAMP in CHO cells transfected with human β3 gene); type: cell-based; settings: for Emax: CHO, read-out: Intrinsic activity (%)
T1 construct: And then full length of human β3 gene was cloned using this fragment as a probe; expressed in transfected cells; host or cells: CHO cells (Chinese hamster ovary), pcDNA3 vector
Experimental: Human β3-agonist Activity
Human β3-agonist activity was examined using CHO cells (chinese hamster ovarian cells) to which pcDNA3 (in vitrogen) cells inserted human β3 gene was transfected. Human β3 fragment was obtained by PCR using human fat tissue cDNA (supplied from Clontech) with a β3 primer [Krief et al, J. Clin. Invest.
The cells were cultured in a HAM F-12 medium containing 10% of fetal bovine serum, 400 μg/ml of Geneticin (Gibco BRL). 100 U/ml penicillin and 100 μg/ml streptomycin. 5×10^5 cells were placed on a 6-well plate and cultured for 24 hours, after which the medium was changed to a HAM F-12 medium without serum and was kept for 2 hours. Each test compound was first dissolved in DMSO, and then diluted with a HAM F-12 medium containing 1 mM isobutylmethyl xanthine and 1 mM ascorbic acid. A 10-fold dilution in the range of 10^−5 to 10^−12 M was added into the cell.
After culturing for 30 minutes, culture medium was withdrawn, 0.5 ml of 1 N NaOH was added and was kept for 20 minutes. And then 0.5 ml of 1 N acetic acid was added with subsequent agitation and centrifugation. Finally the concentration of cAMP were analyzed using cAMP EIA KIT (Cayman). […] Isoprotelenol was purchased from Research Biochimicals International.

[2] = system: canine adipocytes; experiment: Lipolytic activity in canine fatty cell (glycerol release); type: cell-based, dogs; settings: Canis lupus familiaris, Adipocyte; for EC50: 1 h, glycerol release, canine adipocytes, read-out: ED50 (the source's name); for Emax: read-out: Intrinsic activity (%)
Experimental: Lipolytic Activity in Canine Fatty Cell
Adipose tissues in the omentum were collected from dogs and minced and washed. Krebs-Ringer buffer solution containing 1 mg/ml Collagenase (Sigma) and 1% of bovine serum albumin was added in an amount of 3 ml per one gram of the tissue. These cells were then incubated at 37° C. for 30 minutes with shaking and then undigested tissues were removed with a nylon filter. The resulting adipocytes were washed four times with Krebs-Ringer buffer, and then the concentration of cells was diluted to 2×10^5/ml with Krebs-Ringer buffer solution containing 4% of bovine serum albumin. These cells were transferred to Eppendorf tubes each in an amount of 300 μl.
Each 300 μl of a culture medium containing the test compounds were added to these tubes and was held at 37° C. for 1 hour whith shaking. Stimulation was stoped by cooling with ice. After centrifugation, the adipocytes were taken off with an aspirator, whereupon the glycerol was determined using F-KIT GLTCEROL (Behringer-Manheim).

[3] = cAMP, CHO cells with human β3, read-out: ED50 (the source's name)

T1 sequence (P13945 whole entry, the tested form may be a part): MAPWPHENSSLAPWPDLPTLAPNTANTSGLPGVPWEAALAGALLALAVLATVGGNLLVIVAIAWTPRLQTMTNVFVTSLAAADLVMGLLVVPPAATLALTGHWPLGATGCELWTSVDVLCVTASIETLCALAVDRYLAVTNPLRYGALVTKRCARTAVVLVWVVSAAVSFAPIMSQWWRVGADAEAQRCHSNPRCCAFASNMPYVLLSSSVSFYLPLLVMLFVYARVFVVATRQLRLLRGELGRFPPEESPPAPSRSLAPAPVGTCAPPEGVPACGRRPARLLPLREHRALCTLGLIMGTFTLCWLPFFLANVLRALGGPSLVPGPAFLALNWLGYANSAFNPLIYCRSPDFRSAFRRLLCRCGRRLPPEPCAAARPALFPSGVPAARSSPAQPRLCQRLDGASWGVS

SMILES | EC50 [1] [nM] | Emax [1] [%] | EC50 [2] [nM] | Emax [2] [%] | EC50 [1, 3] [nM]
CS(=O)(=O)Nc1cc(C(O)CNCCOc2ccc3c(c2)oc2ccccc23)ccc1O (racemic) [Example 4, (±)-N-[5-[2-[2-(Dibenzofuran-3-yloxy)ethylamino]-1-hydroxyethyl]-2-hydroxyphenyl]methanesulfonamide Hydrochloride] | 0.52 | 80 | 0.7 | 88 | –
CS(=O)(=O)Nc1cc(C(O)CNCCOc2ccc3c(c2)[nH]c2ccccc23)ccc1N (racemic) [Example 82, (±)-N-[5-[2-[2-(9H-Carbazol-2-yloxy)ethylamino]-1-hydroxyethyl]-2-aminophenyl]methanesulfonamide Hydrochloride] | 2800 | 130 | – | – | –
CN(Cc1ccccc1)S(=O)(=O)c1cc(C(O)CNCCOc2ccc3c(c2)[nH]c2ccccc23)ccc1O (racemic) [Example 83, (±)-N-Methyl-N-benzyl-[5-[2-[2-(9H-carbazol-2-yloxy)ethylamino]-1-hydroxyethyl]-2-hydroxy]benzenesulfonamide Hydrochloride] | – | 79 | – | – | 740
CS(=O)(=O)Nc1cc(C(O)CNCCOc2ccc3c(c2)[nH]c2ccccc23)ccc1CO (racemic) [Example 84, (±)-N-[5-[2-[2-(9H-Carbazol-2-yloxy)ethylamino]-1-hydroxyethyl]-2-(hydroxymethyl)phenyl]methanesulfonamide] | – | 71 | – | – | 58
CS(=O)(=O)Nc1cc(C(O)CNCCOc2ccc3c(c2)[nH]c2ccccc23)ccc1Br (racemic) [Example 85, (±)-N-[5-[2-[2-(9H-Carbazol-2-yloxy)ethylamino]-1-hydroxyethyl]-2-bromophenyl]methanesulfonamide] | – | 70 | – | – | 56
CN(Cc1ccccc1)S(=O)(=O)Nc1cc(C(O)CNCCOc2ccc3c(c2)[nH]c2ccccc23)ccc1O (racemic) [Example 87, (±)-N′-[5-[2-[2-(9H-Carbazol-2-yloxy)ethylamino]-1-hydroxyethyl]-2-hydroxyphenyl]-N-methyl-N-benzylsulfamide Hydrochloride] | 84 | 138 | – | – | –
CCN(CC)S(=O)(=O)Nc1cc(C(O)CNCCOc2ccc3c(c2)[nH]c2ccccc23)ccc1O (racemic) [Example 88, (±)-N′-[5-[2-[2-(9H-Carbazol-2-yloxy)ethylamino]-1-hydroxyethyl]-2-hydroxyphenyl]-N,N-diethylsulfamide Hydrochloride] | 390 | 86 | – | – | –
CN(C)S(=O)(=O)c1cc(C(O)CNCCOc2ccc3c(c2)[nH]c2ccccc23)ccc1O (racemic) [Example 89, (±)-N,N-Dimethyl-(5-[2-[2-(9H-carbazol-2-yloxy)ethylamino]-1-hydroxyethyl]-2-hydroxy]benzenesulfonamide Hydrochloride] | – | 73 | – | – | 350
COC(CNCCOc1ccc2c(c1)[nH]c1ccccc12)c1ccc(O)c(NS(C)(=O)=O)c1 (racemic) [Example 90, (±)-N-[5-[2-[2-(9H-Carbazol-2-yloxy)ethylamino]-1-methoxyethyl]-2-hydroxyphenyl]methanesulfonamide Hydrochloride] | 190 | 102 | – | – | –
CS(=O)(=O)Nc1cc([C@@H](O)CNCCOc2ccc3c(c2)[nH]c2ccccc23)ccc1O [Example 12, (R)-N-[5-[2-[2-(9H-Carbazol-2-yloxy)ethylamino]-1-hydroxyethyl]-2-hydroxyphenyl]methanesulfonamide Hydrochloride] | 0.14 | 113 | – | – | –
CS(=O)(=O)Nc1cc([C@H](O)CNCCOc2ccc3c(c2)[nH]c2ccccc23)ccc1O [Example 13, (S)-N-[5-[2-[2-(9H-Carbazol-2-yloxy)ethylamino]-1-hydroxyethyl]-2-hydroxyphenyl]methanesulfonamide Hydrochloride] | 2.7 | 110 | – | – | –
CS(=O)(=O)Nc1cccc([C@@H](O)CNCCOc2ccc3c(c2)[nH]c2ccccc23)c1 [Example 14, (R)-N-[3-[2-[2-(9H-Carbazol-2-yloxy)ethylamino]-1-hydroxyethyl]phenyl]methanesulfonamide Hydrochloride] | 2.8 | 97 | – | – | –
CS(=O)(=O)Nc1cccc([C@H](O)CNCCOc2ccc3c(c2)[nH]c2ccccc23)c1 [Example 15, (S)-N-[3-[2-[2-(9H-Carbazol-2-yloxy)ethylamino]-1-hydroxyethyl]phenyl]methanesulfonamide Hydrochloride] | 110 | 88 | – | – | –
C[C@H](COc1ccc2c(c1)[nH]c1ccccc12)NC[C@H](O)c1ccccc1 [Example 35, (R,R)-2-[N-[1-(9H-Carbazol-2-yloxy)propan-2-yl]amino]-1-phenylmethanol Hydrochloride] | – | 90 | – | – | 520
CS(=O)(=O)Nc1cccc([C@@H](O)CNCCOc2ccc3c(c2)oc2ccccc23)c1 [Example 70, (R)-N-[3-[2-[2-(Dibenzofuran-3-yloxy)ethylamino]-1-hydroxyethyl]phenyl]methanesulfonamide Hydrochloride] | 300 | 76 | – | – | –
CN(C)S(=O)(=O)Nc1cc([C@@H](O)CNCCOc2ccc3c(c2)[nH]c2ccccc23)ccc1O [Example 73, (R)-N′-[5-[2-[2-(9H-Carbazol-2-yloxy)ethylamino]-1-hydroxyethyl]-2-hydroxyphenyl]-N,N-dimethylsulfamide Hydrochloride] | 0.038 | 102 | – | – | –
CN(C)S(=O)(=O)Nc1cc([C@H](O)CNCCOc2ccc3c(c2)[nH]c2ccccc23)ccc1O [Example 74, (S)-N′-[5-[2-[2-(9H-Carbazol-2-yloxy)ethylamino]-1-hydroxyethyl]-2-hydroxyphenyl]-N,N-dimethylsulfamide Hydrochloride] | 0.74 | 114 | – | – | –
CN(C)S(=O)(=O)Nc1cc([C@@H](O)CNCCOc2ccc3c(c2)oc2ccccc23)ccc1O [Example 75, (R)-N′-[5-[2-[2-(Dibenzofuran-3-yloxy)ethylamino]-1-hydroxyethyl]-2-hydroxyphenyl]-N,N-dimethylsulfamide Hydrochloride] | 88 | 105 | – | – | –
CN(C)S(=O)(=O)Nc1cc([C@H](O)CNCCOc2ccc3c(c2)oc2ccccc23)ccc1O [Example 76, (S)-N′-[5-[2-[2-(Dibenzofuran-3-yloxy)ethylamino]-1-hydroxyethyl]2-hydroxyphenyl]-N,N-dimethylsulfamide Hydrochloride] | 520 | 131 | – | – | –
CS(=O)(=O)Nc1cc([C@@H](O)CNCCOc2ccc3c(c2)[nH]c2ccccc23)ccc1F [Example 77, (R)-N-[5-[2-[2-(9H-Carbazol-2-yloxy)ethylamino]-1-hydroxyethyl]-2-fluorophenyl]methanesulfonamide Hydrochloride] | 21 | 100 | – | – | –
CS(=O)(=O)Nc1cc([C@H](O)CNCCOc2ccc3c(c2)[nH]c2ccccc23)ccc1F [Example 78, (S)-N-[5-[2-[2-(9H-Carbazol-2-yloxy)ethylamino]-1-hydroxyethyl]-2-fluorophenyl]methanesulfonamide Hydrochloride] | 51 | 110 | – | – | –
CS(=O)(=O)Nc1cc([C@@H](O)CNCCOc2ccc3c(c2)[nH]c2ccccc23)ccc1Cl [Example 79, (R)-N-[5-[2-[2-(9H-Carbazol-2-yloxy)ethylamino]-1-hydroxyethyl]-2-chlorophenyl]methanesulfonamide Hydrochloride] | 1.2 | 107 | – | – | –
CS(=O)(=O)Nc1cc([C@H](O)CNCCOc2ccc3c(c2)[nH]c2ccccc23)ccc1Cl [Example 80, (S)-N-[5-[2-[2-(9H-Carbazol-2-yloxy)ethylamino]-1-hydroxyethyl]-2-chlorophenyl]methanesulfonamide Hydrochloride] | 57 | 110 | – | – | –
CNS(=O)(=O)c1cc([C@@H](O)CNCCOc2ccc3c(c2)[nH]c2ccccc23)ccc1O [Example 81, (R)-N-methyl-[5-(2-[2-(9H-Carbazol-2-yloxy)ethylamino]-1-hydroxyethyl]-2-hydroxy]benzenesulfonamide Hydrochloride] | – | 98 | – | – | 6.2
CC(C)NCC(O)c1ccc(O)c(O)c1 (stereo not shown) [Isoproterenol, reference compound] | – | – | 1.7 | 100 | –
